BindingDB's records for doi:10.1016/j.bmcl.2015.12.003 (University of Auckland, 2016)

Assay: Inhibition of recombinant perforin (unknown origin) mediated lysis of human Jurkat cells pre-incubated for 30 mins with perforin followed by incubation with Jurkat cells at 37 degC for 4 hrs assessed as 51Cr release by gamma counting analysis
With `O=C1OCc2cc(-c3ccc(-c4ccccc4)s3)ccc21` the IC50 was greater than 20 µM.
`Cc1ccccc1-c1ccc(-c2ccc3c(c2)COC3=O)s1` showed an IC50 greater than 20 µM.
Work on `Cc1cccc(-c2ccc(-c3ccc4c(c3)COC4=O)s2)c1` yielded an IC50 greater than 20 µM.
Compound `Cc1ccc(-c2ccc(-c3ccc4c(c3)COC4=O)s2)cc1` has an IC50 greater than 20 µM.
In the case of `O=C1OCc2cc(-c3ccc(-c4ccccc4Cl)s3)ccc21`, the IC50 is reported as greater than 20 µM.
`O=C1OCc2cc(-c3ccc(-c4cccc(Cl)c4)s3)ccc21` showed an IC50 greater than 20 µM.
`O=C1OCc2cc(-c3ccc(-c4ccc(Cl)cc4)s3)ccc21` gave an IC50 greater than 20 µM.
For `COc1ccccc1-c1ccc(-c2ccc3c(c2)COC3=O)s1`, the IC50 was greater than 20 µM.
`COc1cccc(-c2ccc(-c3ccc4c(c3)COC4=O)s2)c1` showed an IC50 greater than 20 µM.
With `COc1ccc(-c2ccc(-c3ccc4c(c3)COC4=O)s2)cc1` the IC50 was 9.36 µM.
Compound `Nc1cccc(-c2ccc(-c3ccc4c(c3)COC4=O)s2)c1` has an IC50 of 14 µM.
For `Nc1ccc(-c2ccc(-c3ccc4c(c3)COC4=O)s2)cc1`, the IC50 was 11.8 µM.
Work on `O=C1OCc2cc(-c3ccc(-c4cccc(O)c4)s3)ccc21` yielded an IC50 of 5.89 µM.
`O=C1OCc2cc(-c3ccc(-c4ccc(O)cc4)s3)ccc21` gave an IC50 greater than 20 µM.
Work on `N#Cc1cccc(-c2ccc(-c3ccc4c(c3)COC4=O)s2)c1` yielded an IC50 of 20 µM.
With `N#Cc1ccc(-c2ccc(-c3ccc4c(c3)COC4=O)s2)cc1` the IC50 was 6.87 µM.
Work on `NC(=O)c1cccc(-c2ccc(-c3ccc4c(c3)COC4=O)s2)c1` yielded an IC50 of 2.97 µM.
`NC(=O)c1ccc(-c2ccc(-c3ccc4c(c3)COC4=O)s2)cc1` showed an IC50 of 0.18 µM.
For `NC(=O)c1ccc(-c2ccc(-c3ccc4c(c3)CNC4=O)s2)cc1`, the IC50 was 6.04 µM.
`CN1Cc2cc(-c3ccc(-c4ccc(C(N)=O)cc4)s3)ccc2C1=O` gave an IC50 greater than 20 µM.
`CNC(=O)c1ccc(-c2ccc(-c3ccc4c(c3)COC4=O)s2)cc1` gave an IC50 of 10.7 µM.
Compound `CN(C)C(=O)c1ccc(-c2ccc(-c3ccc4c(c3)COC4=O)s2)cc1` has an IC50 greater than 20 µM.
`CN1CCN(C(=O)c2ccc(-c3ccc(-c4ccc5c(c4)COC5=O)s3)cc2)CC1` gave an IC50 greater than 20 µM.
`CN(C)CCCNC(=O)c1ccc(-c2ccc(-c3ccc4c(c3)COC4=O)s2)cc1` showed an IC50 greater than 20 µM.
Compound `CCOC(=O)c1ccc(-c2ccc(-c3ccc4c(c3)COC4=O)s2)cc1` has an IC50 of 11 µM.
`CCOC(=O)c1ccc(-c2ccc(-c3ccc4c(c3)COC4=O)s2)cc1O` showed an IC50 greater than 20 µM.
`Nc1cc(-c2ccc(-c3ccc4c(c3)COC4=O)s2)ccc1C(=O)O` gave an IC50 of 5.84 µM.
Work on `NC(=O)c1ccc(-c2ccc(-c3ccc4c(c3)COC4=O)s2)cc1O` yielded an IC50 of 0.67 µM.
`O=C(NCCN1CCOCC1)c1ccc(-c2ccc(-c3ccc4c(c3)COC4=O)s2)cc1O` showed an IC50 of 12.8 µM.
With `CN(C)CCNC(=O)c1ccc(-c2ccc(-c3ccc4c(c3)COC4=O)s2)cc1O` the IC50 was greater than 20 µM.
Compound `O=C(NCCO)c1ccc(-c2ccc(-c3ccc4c(c3)COC4=O)s2)cc1O` has an IC50 of 3.31 µM.
For `CC(O)CNC(=O)c1ccc(-c2ccc(-c3ccc4c(c3)COC4=O)s2)cc1O` (stereo unspecified), the IC50 was greater than 20 µM.
For `NC(=O)CNC(=O)c1ccc(-c2ccc(-c3ccc4c(c3)COC4=O)s2)cc1O`, the IC50 was 2.65 µM.
`NC(=O)CCNC(=O)c1ccc(-c2ccc(-c3ccc4c(c3)COC4=O)s2)cc1O` gave an IC50 of 7.12 µM.
Compound `NC(=O)c1ccc(-c2ccc(-c3ccc4c(c3)COC4=O)s2)cc1N` has an IC50 of 1.2 µM.
Compound `Nc1cc(-c2ccc(-c3ccc4c(c3)COC4=O)s2)ccc1C(=O)NCCN1CCOCC1` has an IC50 of 14.7 µM.
`CN(C)CCNC(=O)c1ccc(-c2ccc(-c3ccc4c(c3)COC4=O)s2)cc1N` showed an IC50 greater than 20 µM.
With `CSc1ccc(-c2ccc(-c3ccc4c(c3)COC4=O)s2)cc1` the IC50 was greater than 20 µM.
`O=C1OCc2cc(-c3ccc(-c4ccc(CO)cc4)s3)ccc21` showed an IC50 of 0.9 µM.
`CS(=O)(=O)c1ccc(-c2ccc(-c3ccc4c(c3)COC4=O)s2)cc1` gave an IC50 greater than 20 µM.
With `NS(=O)(=O)c1cccc(-c2ccc(-c3ccc4c(c3)COC4=O)s2)c1` the IC50 was 4.85 µM.
`CC(C)(C)NS(=O)(=O)c1ccc(-c2ccc(-c3ccc4c(c3)COC4=O)s2)cc1` showed an IC50 of 6.09 µM.
`CS(=O)(=O)Nc1ccc(-c2ccc(-c3ccc4c(c3)COC4=O)s2)cc1` gave an IC50 of 1.09 µM.
Compound `NC(=O)c1ccc(-c2ccc(-c3ccc4c(c3)COC4=O)s2)cn1` has an IC50 of 0.92 µM.
For `O=C1OCc2cc(-c3ccc(-c4ccncc4)s3)ccc21`, the IC50 was 4.53 µM.
In the case of `O=C1OCc2cc(-c3ccc(-c4ccc5c(c4)COC5=O)s3)ccc21`, the IC50 is reported as 6.24 µM.
